Source: publication PMC10786919, “Design-rules for stapled peptides with in vivo activity and their application to Mdm2/X antagonists” (Nature Communications, 2024)
≈ marks a conversion by molar mass, not a printed value. Where two headings read alike, the source gives them in different places. Positions of bridges follow the written chain, without caps; N, C: chain ends. Non-standard residues stand in square brackets, D forms with d. Residues, ends and D or L forms follow the SMILES beside them. Lys(N3) = [N-]=[N+]=NCCCC[C@H](N)C(=O)O; R8 = C=CCCCCCC[C@@](C)(N)C(=O)O; Cba = N[C@@H](CC1CCC1)C(=O)O; S5 = C=CCCC[C@](C)(N)C(=O)O; βAla = NCCC(=O)O

Key:
[1] = Experimental LogD (partition coefficient); conditions: not stated, Partition Coeff LogD
[2] = Nanoclick permeability assay
Summary of the method: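 Azido-peptide permeability was read as loss of NanoBRET signal (donor 450 nm, acceptor 610 nm) after adding NanoBret618-azide at 10 μM final.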

[3] = Solubility assay (kinetic solubility, PBS pH 7); format: physicochemical; conditions: pH 7, aqueous buffer, kinetic from dmso stock, pH 7, PBS; read-out: Solubility
Summary of the method: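 Reference standards were made by diluting the 10 mM stock to 100 µM in acetonitrile:methanol:DMSO 10:80:10. Solubility in µM was calculated as the sample peak area divided by the standard peak area, multiplied by the standard concentration.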

[4] = Lactate dehydrogenase (LDH) release assay; format: cell-based
Summary of the method: (§1)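 Membrane damage measured as lactate dehydrogenase release (CytoTox-ONE kit) from p53-responsive β-lactamase reporter HCT116 cells plated at 8000 per well. Final DMSO 0.5%; geometric mean reported from a minimum of three biological replicates.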

HCT116 cells = test: Lactate dehydrogenase (LDH) release assay; format: cell-based
Summary of the method: as §1

[5] = 0% FBS 4Hr, read-out: LDH: Cytotoxicity assay EC50

SMILES	EPSA (physchem) [A^2]	logD [1]	cell entry EC50 [2] [nM]	solubility kinetic [3] [µM]	EC50 [4, 5] [nM]	EC50 ([4]; 10% FBS 4Hr, read-out: LDH: Cytotoxicity assay EC50) [nM]	LDH: Cytotoxicity assay % Effect (HCT116 cells; 0% FBS 4Hr) [%]	LDH: Cytotoxicity assay % Effect (HCT116 cells; 0% FBS 16Hr) [%]	LDH: Cytotoxicity assay % Effect (HCT116 cells; 10% FBS 4Hr) [%]	EC50 ([4]; 4 hours, 0% serum, read-out: LDH Cytotoxicity assay EC50) [nM]
CC(=O)N[C@@H](CCCCN=[N+]=[N-])C(=O)NCCC(=O)N[C@@H](CC(C)C)C(=O)N[C@H](C(=O)N[C@@H](Cc1ccccc1)C(=O)N[C@]1(C)CCCCCCC=CCCC[C@@](C)(C(=O)N[C@@H](CO)C(=O)N[C@@H](C)C(=O)N[C@@H](C)C(N)=O)NC(=O)[C@H](CC2CCC2)NC(=O)[C@H](CCC(N)=O)NC(=O)[C@H](C)NC(=O)[C@H](Cc2c[nH]c3ccccc23)NC(=O)[C@H](Cc2ccc(O)cc2)NC(=O)[C@H](Cc2c[nH]cn2)NC1=O)[C@@H](C)O [MP-175, AZIDE-ATSP-7041 (E5H)]	214	3.42	316	2 (≈ 3.96 µg/mL)	> 50000	> 50000	2.645	7.95	-1.124	
CC(=O)N[C@@H](CCCCN=[N+]=[N-])C(=O)NCCC(=O)N[C@@H](CC(C)C)C(=O)N[C@H](C(=O)N[C@@H](Cc1ccccc1)C(=O)N[C@]1(C)CCCCCCC=CCCC[C@@](C)(C(=O)N[C@@H](CO)C(=O)N[C@@H](C)C(=O)N[C@@H](C)C(N)=O)NC(=O)[C@H](CC2CCC2)NC(=O)[C@H](Cc2c[nH]cn2)NC(=O)[C@H](C)NC(=O)[C@H](Cc2c[nH]c3ccccc23)NC(=O)[C@H](Cc2ccc(O)cc2)NC(=O)[C@H](CCC(=O)O)NC1=O)[C@@H](C)O [MP-176, AZIDE-ATSP-7041 (Q9H)]	222	2.88	396	2 (≈ 3.96 µg/mL)	> 50000		5.39	4.02		
CC(=O)N[C@@H](CCCCN=[N+]=[N-])C(=O)NCCC(=O)N[C@@H](CC(C)C)C(=O)N[C@H](C(=O)N[C@@H](Cc1ccccc1)C(=O)N[C@]1(C)CCCCCCC=CCCC[C@@](C)(C(=O)N[C@@H](Cc2c[nH]cn2)C(=O)N[C@@H](C)C(=O)N[C@@H](C)C(N)=O)NC(=O)[C@H](CC2CCC2)NC(=O)[C@H](CCC(N)=O)NC(=O)[C@H](C)NC(=O)[C@H](Cc2c[nH]c3ccccc23)NC(=O)[C@H](Cc2ccc(O)cc2)NC(=O)[C@H](CCC(=O)O)NC1=O)[C@@H](C)O [MP-177, AZIDE-ATSP-7041 (S12H)] (Ac-[Lys(N3)][βAla]LTF[R8]EYWAQ[Cba][S5]HAA-NH2; staple 6-13)	227	2.74	149	6.5 (≈ 13.1 µg/mL)	> 50000		4.985			
CC(=O)N[C@@H](CCCCN=[N+]=[N-])C(=O)NCCC(=O)N[C@@H](CCCCN)C(=O)N[C@H](C(=O)N[C@@H](Cc1ccccc1)C(=O)N[C@]1(C)CCCCCCC=CCCC[C@@](C)(C(=O)N[C@@H](CO)C(=O)N[C@@H](C)C(=O)N[C@@H](C)C(N)=O)NC(=O)[C@H](CC2CCC2)NC(=O)[C@H](CCC(N)=O)NC(=O)[C@H](C)NC(=O)[C@H](Cc2c[nH]c3ccccc23)NC(=O)[C@H](Cc2ccc(O)cc2)NC(=O)[C@H](CCC(=O)O)NC1=O)[C@@H](C)O [MP-546, AZIDE-ATSP-7041 (L1K)]	229	2.85	210	2 (≈ 3.97 µg/mL)	> 50000		34.42	13.56		
CC(=O)N[C@@H](CCCCN=[N+]=[N-])C(=O)NCCC(=O)N[C@@H](CC(C)C)C(=O)N[C@@H](CCCCN)C(=O)N[C@@H](Cc1ccccc1)C(=O)N[C@]1(C)CCCCCCC=CCCC[C@@](C)(C(=O)N[C@@H](CO)C(=O)N[C@@H](C)C(=O)N[C@@H](C)C(N)=O)NC(=O)[C@H](CC2CCC2)NC(=O)[C@H](CCC(N)=O)NC(=O)[C@H](C)NC(=O)[C@H](Cc2c[nH]c3ccccc23)NC(=O)[C@H](Cc2ccc(O)cc2)NC(=O)[C@H](CCC(=O)O)NC1=O [MP-547, AZIDE-ATSP-7041 (T2K)]	229	3.02	72.2	3 (≈ 5.99 µg/mL)	> 50000		26.9	15.73		
CC(=O)N[C@@H](CCCCN=[N+]=[N-])C(=O)NCCC(=O)N[C@@H](CC(C)C)C(=O)N[C@H](C(=O)N[C@@H](Cc1ccccc1)C(=O)N[C@]1(C)CCCCCCC=CCCC[C@@](C)(C(=O)N[C@@H](CO)C(=O)N[C@@H](C)C(=O)N[C@@H](C)C(N)=O)NC(=O)[C@H](CC2CCC2)NC(=O)[C@H](CCC(N)=O)NC(=O)[C@H](C)NC(=O)[C@H](Cc2c[nH]c3ccccc23)NC(=O)[C@H](Cc2ccc(O)cc2)NC(=O)[C@H](CCCCN)NC1=O)[C@@H](C)O [MP-548, AZIDE-ATSP-7041 (E5K)]	213	3.25	1020	5 (≈ 9.85 µg/mL)	12300		84.33	14.03		12200
CC(=O)N[C@@H](CCCCN=[N+]=[N-])C(=O)NCCC(=O)N[C@@H](CC(C)C)C(=O)N[C@H](C(=O)N[C@@H](Cc1ccccc1)C(=O)N[C@]1(C)CCCCCCC=CCCC[C@@](C)(C(=O)N[C@@H](CO)C(=O)N[C@@H](C)C(=O)N[C@@H](C)C(N)=O)NC(=O)[C@H](CC2CCC2)NC(=O)[C@H](CCC(N)=O)NC(=O)[C@H](CCCCN)NC(=O)[C@H](Cc2c[nH]c3ccccc23)NC(=O)[C@H](Cc2ccc(O)cc2)NC(=O)[C@H](CCC(=O)O)NC1=O)[C@@H](C)O [MP-549, AZIDE-ATSP-7041 (A8K)]	220	2.75	233	4.5 (≈ 9.12 µg/mL)	> 50000		7.105	45.26		
CC(=O)N[C@@H](CCCCN=[N+]=[N-])C(=O)NCCC(=O)N[C@@H](CC(C)C)C(=O)N[C@H](C(=O)N[C@@H](Cc1ccccc1)C(=O)N[C@]1(C)CCCCCCC=CCCC[C@@](C)(C(=O)N[C@@H](CO)C(=O)N[C@@H](C)C(=O)N[C@@H](C)C(N)=O)NC(=O)[C@H](CC2CCC2)NC(=O)[C@H](CCCCN)NC(=O)[C@H](C)NC(=O)[C@H](Cc2c[nH]c3ccccc23)NC(=O)[C@H](Cc2ccc(O)cc2)NC(=O)[C@H](CCC(=O)O)NC1=O)[C@@H](C)O [MP-550, AZIDE-ATSP-7041 (Q9K)]	217	3.08	437	4 (≈ 7.88 µg/mL)	> 50000		7.145	4.1		
CC(=O)N[C@@H](CCCCN=[N+]=[N-])C(=O)NCCC(=O)N[C@@H](CC(C)C)C(=O)N[C@H](C(=O)N[C@@H](Cc1ccccc1)C(=O)N[C@]1(C)CCCCCCC=CCCC[C@@](C)(C(=O)N[C@@H](CCCCN)C(=O)N[C@@H](C)C(=O)N[C@@H](C)C(N)=O)NC(=O)[C@H](CC2CCC2)NC(=O)[C@H](CCC(N)=O)NC(=O)[C@H](C)NC(=O)[C@H](Cc2c[nH]c3ccccc23)NC(=O)[C@H](Cc2ccc(O)cc2)NC(=O)[C@H](CCC(=O)O)NC1=O)[C@@H](C)O [MP-551, AZIDE-ATSP-7041 (S12K)] (Ac-[Lys(N3)][βAla]LTF[R8]EYWAQ[Cba][S5]KAA-NH2; staple 6-13)	216	2.83	253	2 (≈ 4.02 µg/mL)	> 50000		3.03	-1.59		
